Experiment [1] relates to A375. The experiment in a line: MTT antiproliferative/cytotoxicity assay, A375. Format: cell-based, human. To be noted: Homo sapiens, A-375, 48 h, melanoma, MTT, 48 h; read-out: IC50 A375. In a few lines: (§1)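 Cells at 65–75% confluence treated with 0–40 µM compound (diluted in growth medium from 10 mM DMSO stocks) in sext- to octuplicate for 48 h; viability by MTT. A375 and HaCaT in DMEM with 10% and 5% FBS respectively; SK-MEL-28 in RPMI-1640 with 5% FBS; 37 °C, 5% CO2.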

The test system of experiment [2] is SK-MEL-28. Briefly: MTT antiproliferative/cytotoxicity assay, SK-MEL-28. To be noted: Homo sapiens, SK-MEL-28, 48 h, melanoma, MTT, 48 h; read-out: IC50 SKMEL-28. The class given is cell-based, human. In a few lines:
as §1

Experiment [3] relates to SCC-12. Briefly: MTT antiproliferative/cytotoxicity assay, SCC-12. The class given is cell-based, human.
Experiment [4] deals with HaCaT. The experiment in a line: MTT cytotoxicity assay, noncancerous HaCaT keratinocytes. To be noted: Homo sapiens, HaCaT; control noncancerous keratinocytes, MTT, 48 h; read-out: IC50 HaCaT. Format: cell-based, human. Put shortly: as §1
For orientation: Tetrazolium dyes change colour on reduction, which living cells bring about.

Experiment [5] is described as follows: DPPH free radical scavenging assay. In general terms: The DPPH test is a chemical assay of radical scavenging.
Experiment [6] has as its system A431. The experiment in a line: Colony formation assay, A431. To be noted: 0, ½IC50, IC50, 1½IC50; 14 days; vs untreated control. Format: cell-based, human. On the procedure: Cells were then trypsinised, and 1000 viable cells from each treated group were seeded on […] in 10 mL of the medium, and incubated for an additional 14 days before fixation and crystal violet staining, imaging, and colonies assessment as previously described[109]^,[116]. The plates were scanned, and the area of clones was quantified with the free software Image J (Bethesda, MD) (https://imagej.nih.gov/ij/).

The subject of experiment [7] is A431. The experiment in a line: Scratch wound healing assay, A431. Format: cell-based, human. To be noted: 0, ½IC50, IC50, 1½IC50; 48 h; vs untreated control. On the procedure:
(§2) The scratch wound healing assay was performed to evaluate compound P25’s ability to limit cell migration and scratch wound closure following our previously described protocol. Briefly, cells were seeded in wells of a 24-well plate and incubated to 100% confluent monolayer, following which a sterile 200 µL Gilson pipette tip was used to scratch a straight line across the centre. […] The wounded and re-epithelialisation areas were imaged at 0 h, 24 h, and 48 h using an inverted phase-contrast Olympus IX51 microscope (Olympus America Inc., Center Valley, PA) attached to an Infinity 2 digital camera. Images were processed with an Infinity analysis software version 6.5.6 (Teledyne Lumenera, Ottawa, Canada) and analysed with Adobe Photoshop. The ImageJ software (NIH, Bethesda, MD) was used to measure the migratory area of each treatment group, with results expressed as remaining percentage of unfilled wound surface at 0 h[108].

In experiment [8] the test system is SK-MEL-28. Briefly: Scratch wound healing assay, SK-MEL-28. Format: cell-based, human. To be noted: 0, ½IC50, IC50, 1½IC50; 48 h; vs untreated control. As for the experimental part: as §2
The test system of experiment [9] is SK-MEL-28. The experiment in a line: Immunoblotting of apoptosis markers, SK-MEL-28. Format: cell-based, human. To be noted: western blot, 48 h, vs untreated. On the procedure:
Immunoblotting was performed according to standard procedures of the Bio-Rad electrophoresis system (Bio-Rad, Hercules, CA) as described earlier. Briefly, protein extracts were obtained by lysing cells in RIPA buffer containing protease inhibitors, and were resolved by 4–12% polyacrylamide ready mini-PROTEAN TGX gel electrophoresis with sodium dodecyl sulphate (SDS) running buffer. Gels were electrotransferred to 0.45 μm nitrocellulose membranes (Bio-Rad, Hercules, CA) in Tris-glycine (TG) buffer using a Trans-Blot Turbo Transfer Pack according to manufacturer’s instructions. Membranes were incubated for 1 h in 5–7% non-fat powdered milk dissolved in TBST (Tris-buffered saline containing 0.05% Tween 20) or 5% BSA for phosphorylated proteins, to saturate nonspecific binding sites, followed by an overnight incubation (4 °C) with primary antibodies. Membranes were washed 5× with TBST and treated with suitable HRP-conjugated secondary antibodies (Amersham Life Science Inc., Arlington Height, IL) for another 2 h at room temperature, followed by additional wash steps and chemiluminescence-based detection with the Amersham ECL Prime detection reagent kit and the Bio-Rad Quantity One ChemiDoc™ detection and imaging analysis software systems as described earlier[108]^,[109].

In the case of `O=C1CC(c2ccccc2)=NN1c1ccc(Br)cc1` [P25], the IC50 came to 14.3 ± 0.9 µM in experiment [1]; 7.6 ± 0.6 µM in experiment [2]; 12.2 ± 0.6 µM in experiment [3] (Homo sapiens, SCC12, 48 h, non-melanoma, MTT, 48 h, read-out: IC50 SCC-12); 30.5 ± 2 µM in [4]; 190 µM in experiment [5] (N.A. = No Activity, > 1000 = not biologically relevant, read-out: IC50 Value, DPPH antioxidant activity (Table S4)). In [3] (IC50 HaCaT divided by IC50 SCC-12), the “selectivity index (SI) SCC-12” value was about 2.5. For the same compound, in [5] (1 mM), the “Percent Scavenging (DPPH)” value is reported as 77.30%. Further, the “colony formation, A431” value in experiment [6] was “significant concentration-dependent reductions in the relative percentage of colonies formed”. For the same compound, in experiment [7], the “scratch wound closure / migration, A431” value is “significantly and dose-dependently decreased the scratch wound areas”. The “scratch wound closure / migration, SK-MEL-28” value in experiment [8] is “significantly and dose-dependently decreased the scratch wound areas”. Further, the “activated caspase-3, caspase-9 and cleaved PARP levels, SK-MEL-28” value in experiment [9] (concentration-dependent) is “substantially increased levels”. The “anti-apoptotic Bcl-2 protein levels, SK-MEL-28” value in experiment [9] was “corresponding decreases”. The “pro-apoptotic Bax expression, SK-MEL-28” value in [9] was “dose-dependent amplified expression”.

In general, IC50 refers to the midpoint of a concentration-inhibition curve.

The record behind these values is article PMC10187093, “Synthesis, in silico modelling, and in vitro biological evaluation of substituted pyrazole derivatives as potential anti-skin cancer, anti-tyrosinase, and antioxidant agents” (Journal of Enzyme Inhibition and Medicinal Chemistry, 2023).
